For assay [1] the following is noted: molecule incorporated into DNA vaccine; cited from earlier work.
Assay [2] relates to CD14+ peripheral blood monocytes cultured to DC. Nature of the assay: Maturation of monocyte-derived dendritic cells to CD83+ cells. The settings on record: 15 ng/ml, within 1 day. Type of assay: cell-based. As for the experimental part: CD14^+ peripheral blood monocytes are adhered to tissue culture flasks and cultured in the presence of 1% AB serum, GM-CSF (400 ng/ml) and IL-4 (400 IU/ml) for 7 days. This yields cells with the morphology of DC and a mean of 49% with the CD1a^+ marker which is indicative of the immature form of the DC capable of taking up and presenting antigen. These cells are then matured to CD83^+ cells by the addition of TNFα (15 ng/ml), which enables the DC to present antigen to cytotoxic T-cells. 7% of the cells become CD83^+ within 1 day, but 3 days at least are required for maximum effect. It is possible that monocyte conditioned medium could replace the 1% AB serum but this is probably not desirable.

For a further assay, the system named is NF-κB. The assay can be described thus: Preliminary work: NF-κB induction and APC/DC function. Type of assay: cell-based.
The test system of a further assay is mice. The settings on record: gene incorporated into allergen DNA vector; cited from earlier work.

For the molecule “GM-CSF: cytokine incorporated into DNA vaccines”, in assay [1], the CTL entry is recorded as “↑CTL”.
With “IFNγ: cytokine incorporated into DNA vaccines”, the CTL result in assay [1] was “↑CTL”.
“IL-5: cytokine incorporated into DNA vaccines”: the Antibody entry in assay [1] is given as “↑IgG”.
As to TGF-β, the Antibody entry in assay [1] is “↑IgG1”.
Take TNFα: the “cells becoming CD83+” value in assay [2] was 7%.
Regarding MEKK1: kinase named as NF-κB inducer, in the assay on NF-κB, the “induction of NF-κB and enhancement of APC/DC function” value is “can induce NF-κB and enhance APC such as DC function”.
“CTLA4: costimulatory molecule incorporated into DNA vaccines”: in assay [1], the Cellular response entry is listed as “↑proliferation”.
“IL-18: cytokine (gene) incorporated into DNA vaccines”: the airway hyperresponsiveness entry in the assay on mice is on record as “successfully reverse airway hyperresponsiveness”. For the same molecule, in assay [1], the Antibody result was “↑IgG”, the CTL result is on record as “↑CTL” and the Cellular response result was “↑proliferation”.
On to “IL-15: cytokine incorporated into DNA vaccines”, for which, in assay [1], the Antibody result is reported as “IgG?”, the CTL entry is “↑CTL” and the Cellular response entry is “±↑proliferation”.

B1: CD80: costimulatory molecule incorporated into DNA vaccines (protein, UniProt P33681 35-288, looked up)
T-lymphocyte activation …: VIHVTKEVKEVATLSCGHNVSVEELAQTRIYWQKEKKMVLTMMSGDMNIWPEYKNRTIFDITNNLSIVILALRPSDEGTYECVVLKYEKDAFKREHLAEVTLSVKADFPTPSISDFEIPTSNIRRIICSTSGGFPEPHLSWLENGEELNAINTTVSQDPETELYAVSSKLDFNMTTNHSFMCLIKYGHLRVNQTFNWNTTKQEHFPDNLLPSWAITLISVNGIFVICCLTYCFAPRCRERRRNERLRRESVRPV
In the case of B1, in assay [1], the CTL result is given as “↑CTL”.

B2: IL-7: cytokine incorporated into DNA vaccines (protein, UniProt P13232 26-177, looked up)
Interleukin-7: DCDIEGKDGKQYESVLMVSIDQLLDSMKEIGSNCLNNEFNFFKRHICDANKEGMFLFRAARKLRQFLKMNSTGDFDLHLLKVSEGTTILLNCTGQVKGRKPAALGEAQPTKSLEENKSLKEQKKLNDLCFLKRLLQEIKTCWNKILMGTKEH
Turning to B2, the Cellular response result in assay [1] is listed as “↑IFNγ”.

B3: CD54: costimulatory molecule incorporated into DNA vaccines (protein, UniProt P05362 28-532, looked up)
Intercellular adhesion …: QTSVSPSKVILPRGGSVLVTCSTSCDQPKLLGIETPLPKKELLLPGNNRKVYELSNVQEDSQPMCYSNCPDGQSTAKTFLTVYWTPERVELAPLPSWQPVGKNLTLRCQVEGGAPRANLTVVLLRGEKELKREPAVGEPAEVTTTVLVRRDHHGANFSCRTELDLRPQGLELFENTSAPYQLQTFVLPATPPQLVSPRVLEVDTQGTVVCSLDGLFPVSEAQVHLALGDQRLNPTVTYGNDSFSAKASVSVTAEDEGTQRLTCAVILGNQSQETLQTVTIYSFPAPNVILTKPEVSEGTEVTVKCEAHPRAKVTLNGVPAQPLGPRAQLLLKATPEDNGRSFSCSATLEVAGQLIHKNQTRELRVLYGPRLDERDCPGNWTWPENSQQTPMCQAWGNPLPELKCLKDGTFPLPIGESVTVTRDLEGTYLCRARSTQGEVTRKVTVNVLSPRYEIVIITVVAAAVIMGTAGLSTYLYNRQRKIKKYRLQQAQKGTPMKPNTQATPP
For B3, the CTL result in assay [1] is listed as “↑CTL”.

B4: CD86: costimulatory molecule incorporated into DNA vaccines (protein, UniProt P42081 24-329, looked up)
T-lymphocyte activation …: APLKIQAYFNETADLPCQFANSQNQSLSELVVFWQDQENLVLNEVYLGKEKFDSVHSKYMGRTSFDSDSWTLRLHNLQIKDKGLYQCIIHHKKPTGMIRIHQMNSELSVLANFSQPEIVPISNITENVYINLTCSSIHGYPEPKKMSVLLRTKNSTIEYDGVMQKSQDNVTELYDVSISLSVSFPDVTSNMTIFCILETDKTRLLSSPFSIELEDPQPPPDHIPWITAVLPTVIICVMVFCLILWKWKKKKRPRNSYKCGTNTMEREESEQTKKREKIHIPERSDEAQRVFKSSKTSSCDKSDTCF
Take B4: the CTL result in assay [1] is on record as “↑CTL”.

B5: CD40L: costimulatory molecule incorporated into DNA vaccines (protein, UniProt P29965 113-261, looked up)
CD40 ligand, soluble form: MQKGDQNPQIAAHVISEASSKTTSVLQWAEKGYYTMSNNLVTLENGKQLTVKRQGLYYIYAQVTFCSNREASSQAPFIASLCLKSPGRFERILLRAANTHSSAKPCGQQSIHLGGVFELQPGASVFVNVTDPSQVSHGTGFTSFGLLKL
On to B5, for which, in assay [1], the CTL result is listed as “↑CTL” and the Cellular response result is “↑IFNγ”.

B6: LFA-3: costimulatory molecule incorporated into DNA vaccines (protein, UniProt P19256 29-250, looked up)
Lymphocyte …: FSQQIYGVVYGNVTFHVPSNVPLKEVLWKKQKDKVAELENSEFRAFSSFKNRVYLDTVSGSLTIYNLTSSDEDEYEMESPNITDTMKFFLYVLESLPSPTLTCALTNGSIEVQCMIPEHYNSHRGLIMYSWDCPMEQCKRNSTSIYFKMENDLPQKIQCTLSNPLFNTTSSIILTTCIPSSGHSRHRYALIPIPLAVITTCIVLYMNGILKCDRKPDRTNSN
On to B6, for which the CTL result in assay [1] is on record as “↑CTL”.

(Values after patent US20040241152A1, “Methods for inducing an immune response with an elevated th1/th2 ratio, by intracellular induction of nfkappab” (priority 2001, published 2004).)
